# According to patent publication US20210338699A1 (priority 2018, published 2021):
# Like-named read-outs stand apart in the source and are kept apart here.
# Experiments:
# [1] = tested on: MHC-Cre/ROCK1^fl/fl and ROCK1^fl/fl mice; experiment: DOX-induced CTX in cardiomyocyte-specific ROCK1 knockout mice; format: in vivo; details: three weekly injections 8 mg/kg, day 21
# Procedure: FIG. 7A. Graph illustrating the percent fractional shortening (FS) of cardiomyocyte-specific ROCK1 knockout mice (MHC-Cre/ROCKfl/fl) and ROCK1fl/fl mice (8-9 weeks old) after receiving three serial injections weekly of NS or DOX (8 mg/kg). Cardiac function was measured by echocardiography analysis on day 21 after the initial injection.
# FIG. 7B. Graph illustrating total TUNEL positive nuclei per 10^5 total nuclei in ventricular myocardium from MHC-Cre/ROCK^fl/fl and ROCK1^fl/fl mice hearts on day 21. N=4-6 in each group.
# FIG. 7C. Representative heart sections stained with picrosirius red/Fast green illustrating the collagen deposition in ventricular myocardium of MHC-Cre/ROCK^fl/fl and ROCK1^fl/fl mice hearts on day 21. N=4-6 in each group.
# To determine if ROCK1 in cardiomyocytes has a role in DOX-induced CTX, cardiomyocyte-specific ROCK1 knockout mice were generated. In myosin heavy chain (MHC)-Cre/ROCK1^fl/fl mice, the ROCK1 protein is truncated only in cardiomyocytes from residue 137 to the end of the protein (FIGS. 6A, 6B). Similar to ROCK1^−/− mice in which the ROCK1 protein is also truncated from residue 180 to the end of the protein in all cells, the conditional targeting approach results in the removal of a large portion of the kinase domain and amino acids from the coiled-coil and the PH domains. […]
# [2] = tested on: AML mice
# Description: Three different sources of donor cells will be utilized: 1) WT LSK cells; 2) Tet2^−/−FLT3^ITD/+ LSK cells; and 3) Dnmt3a^−/−FLT3^ITD/+ LSK cells. Lethally irradiated CD45.1^+ (BoyJ) recipient mice of the above described 5 genotypes will be transplanted with CD45.2^+WT, Tet2^−/−FLT3^ITD/+ or Dnmt3a^−/−FLT3^TID/+ leukemic cells along with CD45.1^+ normal cells in 1:1 ratio pooled from 2-3 mice of either gender at 4 months of age. 2 months posttransplant, the development of AML in these mice will be assessed by analysing peripheral blood. Mice will be randomly assigned into two groups: 1) vehicle; and 2) intraperitoneal injection (IP) of DOX 8 mg/kg/week for 3 weeks. This treatment is based on the previously described approach. […] Alternatively, mice will be subjected to 5 IP injections of DOX (5 mg/Kg) with one-week intervals for a cumulative dose of 25 mg/kg over a period of 5 weeks. […] Relapse of these mice will be monitored closely and DOX will be re-administered and then be compared for CTX.
# [3] = tested on: WT and ROCK1^−/− mice; experiment: Serial doxorubicin administration, DOX-induced CTX in WT and ROCK1−/− mice
# Procedure: FIG. 1A. Schematic diagram representing serial doxorubicin administration protocol. WT and ROCK1^−/− mice received three serial injections weekly of normal saline (NS) or doxorubicin (DOX) (8 mg/kg). […]
# The generation of ROCK1 deficient mice have been previously reported. […] To assess if a deficiency of ROCK1 protects the mice from DOX induced CTX, control (WT) and ROCK1^−/− mice were injected with 8 mg/kg of DOX or normal saline (NS) once weekly for 3 consecutive weeks, for a cumulative dose of 24 mg/kg (FIG. 1A). This treatment is based on the previously described approach, which causes progressive cardiac dysfunction within three weeks after the initial injection, a scenario that mimics early-onset of DOX-induced CTX in humans.
# To elucidate the role of ROCK1 in DOX induced CTX, ROCK1^−/− mice were treated with DOX in parallel to the WT mice.
# During autophagy, the cytosolic form of microtubule-associated protein 1 light chain 3 (LC3-I) is conjugated to phosphatidylethanolamine to form LC3-II, which is recruited to autophagosomal membranes.
# [4] = tested on: cancer patients including AML patients; details: within 9 years of DOX treatment; cited from earlier work
# [5] = tested on: cells expressing FLT3-ITD (FLT3N51); experiment: Proliferation by [3H] thymidine incorporation, FLT3-ITD cells; format: cell-based; details: absence of growth factors, 48 hours
# Procedure: (§1) FIG. 9A. […] After 48 hours, proliferation was evaluated by [^3H] thymidine incorporation.
# (§2) In order to illustrate the imatinib resistance, very high dose of imatinib were used in these cells.
# [6] = tested on: cells expressing BCR-ABL; experiment: Proliferation by [3H] thymidine incorporation, BCR-ABL cells; format: cell-based; details: absence of growth factors, 48 hours
# Procedure: as §1
# FIG. 12A. Graph illustrating the effect of ROCK inhibitor (H-1152) alone or in combination with imatinib on proliferation of myeloid cells expressing BCR-ABL.
# as §2
# Referring now to FIG. 11, primary CML patient derived cells were examined and a human cell line bearing BCR-ABL (K562) was used as a positive control.
# [7] = tested on: leukemic mice; experiment: Survival of leukemic mice treated with ROCK inhibitors; format: in vivo
# Description: Increased ROCK activity is associated with cardiovascular disease (CVD).
# [8] = tested on: ROCK; details: cited from earlier work
# [9] = tested on: blood vessel permeability; details: mouse, in vivo; cited from earlier work
# [10] = tested on: fibroblasts from WT and ROCK1^−/− mice; experiment: Ponatinib treatment of WT and ROCK1−/− fibroblasts; format: cell-based
compound,measurement,setting,value
"COc1cccc2c1C(=O)c1c(O)c3c(c(O)c1C2=O)C[C@@](O)(C(=O)CO)C[C@@H]3O[C@H]1C[C@H](N)[C@H](O)[C@H](C)O1 [DOX, doxorubicin]","cardiotoxic events (cardiac dysfunction, TUNEL positivity, cardiac fibrosis)",[1]; MHC-Cre/ROCK1fl/fl mice,significantly reduced
same,"cardiotoxic events (cardiac dysfunction, TUNEL positivity, cardiac fibrosis)",[1]; ROCK1fl/fl hearts,"induced cardiac dysfunction, increased TUNEL positivity and cardiac fibrosis"
same,AML response,[2]; IP 8 mg/kg/week for 3 weeks,complete remission of AML
same,CTX,"[2]; mouse, in vivo, ip, 8 mg/kg",severe CTX including dysfunction
same,mortality rate,"[3]; ROCK1 deficient mice, at 3 months",55%
same,mortality rate,"[3]; ROCK1 deficient mice, at 6 months",70%
same,mortality rate,"[3]; ROCK1−/− mice, over 6 weeks after initial DOX injection",about 10%
same,death of all treated mice,[3]; WT mice,died within 3 months
same,mortality rate,"[3]; WT mice, over 6 weeks after initial DOX injection",about 70%
same,Bax levels,"[3]; mouse, in vivo",increased
same,autophagosomes by transmission electron microscopy,"[3]; mouse, in vivo",more accumulation of autophagosomes
same,body weight,"[3]; mouse, in vivo",significant impact
same,cardiac fibrosis,"[3]; mouse, in vivo",increased
same,cardiac function,"[3]; mouse, in vivo",preserved
same,cardiac function (percent fractional shortening),"[3]; mouse, in vivo",impaired
same,cardiomyocyte size,"[3]; mouse, in vivo",significant impact
same,"characteristics of DOX-induced CTX (TUNEL, Bax translocation, fibrosis)","[3]; mouse, in vivo",effectively blocked
same,heart weight,"[3]; mouse, in vivo",significant impact
same,mitochondrial translocation of Bax,"[3]; mouse, in vivo",increased
same,number of TUNEL positive cardiac cells,"[3]; mouse, in vivo",significantly increased
same,DOX-induced LV dilation,"[3]; mouse, in vivo, 8 mg/kg",blocked
same,"LV contractile function (LV fractional shortening, FS)","[3]; mouse, in vivo, 8 mg/kg",reduced
same,"left ventricular (LV) dilation (LVESD, LVEDD) by echocardiogram","[3]; mouse, in vivo, 8 mg/kg",reproducible and progressive left ventricular (LV) dilation
same,patients with clinical or sub-clinical manifestation of heart failure,[4],6-18%
O=S(=O)(c1cccc2cnccc12)N1CCCNCC1 [Fasudil],constitutive growth (thymidine incorporation),[5],similarly repress the growth
same,constitutive growth (thymidine incorporation),[6],similarly repress the growth
same,survival of leukemic mice,[7]; compared to vehicle treated,significant enhancement in survival
same,anti-leukemic activity,[7]; in vivo models of AML,potent anti-leukemic activity
"[N]=O [NO, nitric oxide]",ROCK activity,"[8]; patients with CVD, exogenous NO",inhibits ROCK activity
C[C@@H](N)[C@H]1CC[C@H](C(=O)Nc2ccncc2)CC1 [Y27632],constitutive growth (thymidine incorporation),[5],similarly repress the growth
same,constitutive growth (thymidine incorporation),[6],similarly repress the growth
CC(C)c1c(C(=O)Nc2ccccc2)c(-c2ccccc2)c(-c2ccc(F)cc2)n1CC[C@@H](O)C[C@@H](O)CC(=O)O [atorvastatin],ROCK activity,[8]; patients with atherosclerosis,inhibits ROCK activity
Cc1nc(Nc2ncc(C(=O)Nc3c(C)cccc3Cl)s2)cc(N2CCN(CCO)CC2)n1 [dasatinib],amount of Evans Blue in the small intestine,[9],significantly increases
Cc1ccc(C(=O)Nc2ccc(CN3CCN(C)CC3)c(C(F)(F)F)c2)cc1C#Cc1cnc2cccnn12 [ponatinib],cell survival,[10]; ROCK1−/− cells,enhanced survival
same,cleaved caspase 3/8 levels,[10]; ROCK1−/− cells,profound decrease
same,ponatinib induced cell shape changes,[10]; ROCK1−/− fibroblasts,not the case
same,cleaved caspase 8/3 levels,[10]; WT fibroblasts,profound increase
same,ponatinib induced cell shape changes,"[10]; WT fibroblasts, increasing doses",significant changes
